# Source: patent US9394305B2, “Substituted imidazo[1,2-a]pyridine compounds as tropomyosin receptor kinase a (TrkA) inhibitors” (Dr. Reddy's Laboratories Ltd., priority 2014, dated 2016)
# Target: T1, TrkA kinase (Homo sapiens, UniProt P04629)
# T1 construct: purchased Upstate, USA
# Test: In vitro TrkA inhibitory activity using TR-FRET assay
# Format: biochemical
# Conditions: 5 ng TrkA, 500 μM ATP, values given as bins, read-out: TrkA inhibition in-vitro IC50
# Method in brief: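 TrkA kinase (5 ng) was preincubated 30 min at 20-35° C. with compound (1% DMSO final), then 40 nM ULight poly GT and 500 μM ATP were added for 30 min before an EDTA stop. Phosphorylation was detected by Eu anti-phosphotyrosine TR-FRET (ex 340, em 615/665 nm), and IC50 came from sigmoidal fits of 1/3 serial dilutions.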
# T1 sequence (P04629 33-796): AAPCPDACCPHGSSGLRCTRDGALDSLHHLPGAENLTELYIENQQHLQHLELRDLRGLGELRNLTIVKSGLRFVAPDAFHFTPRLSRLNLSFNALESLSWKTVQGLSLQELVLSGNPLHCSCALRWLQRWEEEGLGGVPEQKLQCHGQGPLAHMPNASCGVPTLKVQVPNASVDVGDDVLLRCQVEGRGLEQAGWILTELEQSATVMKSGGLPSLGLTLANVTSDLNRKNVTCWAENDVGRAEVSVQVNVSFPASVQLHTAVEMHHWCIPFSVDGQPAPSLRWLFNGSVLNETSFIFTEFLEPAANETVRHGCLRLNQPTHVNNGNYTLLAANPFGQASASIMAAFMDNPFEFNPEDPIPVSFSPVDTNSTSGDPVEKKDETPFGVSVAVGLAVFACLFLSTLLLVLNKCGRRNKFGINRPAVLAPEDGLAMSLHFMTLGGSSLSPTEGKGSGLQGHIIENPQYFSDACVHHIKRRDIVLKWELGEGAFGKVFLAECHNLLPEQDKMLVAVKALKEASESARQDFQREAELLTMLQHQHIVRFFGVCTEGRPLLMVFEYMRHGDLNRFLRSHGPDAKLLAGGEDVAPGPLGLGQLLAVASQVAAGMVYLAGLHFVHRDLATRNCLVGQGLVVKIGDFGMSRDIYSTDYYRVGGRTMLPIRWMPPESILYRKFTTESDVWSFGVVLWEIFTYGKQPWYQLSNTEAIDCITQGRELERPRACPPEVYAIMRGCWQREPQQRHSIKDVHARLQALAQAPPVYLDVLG
row,SMILES,IC50
1,"O=C(c1cnc2ccc(N3CCCC3c3cc(F)ccc3F)cn12)N1CC(O)C1 (single isomer, unassigned) [Example 73, (6-(2-(2,5-difluorophenyl)pyrrolidin-1-yl)imidazo[1,2-a]pyridine-3 yl)(3-hydroxyazetidin-1-yl)methanone]",≤ 0.05 µM
2,"O=C(c1ccc(F)cc1)c1cnc2ccc(N3CCCC3c3cc(F)ccc3F)cn12 (stereo not drawn) [Example 10, (6-(2-(2,5-difluorophenyl)pyrrolidin-1-yl)imidazo[1,2-a]pyridin-3-yl)(4-fluorophenyl)methanone]",0.05 to 0.1 µM
3,"CN(c1ccn(C)n1)S(=O)(=O)NC(=O)c1cnc2ccc(N3C[C@@H](F)C[C@@H]3c3cc(F)ccc3O[C@@H]3CCOC3)cn12 [Example 92, 6-((2R,4S)-4-fluoro-2-(5-fluoro-2-(((R)-tetrahydrofuran-3-yl)oxy)phenyl)pyrrolidin-1-yl)-N—(N-methyl-N-(1-methyl-1H-pyrazol-3-yl)sulfamoyl)imidazo[1,2-a]pyridine-3-carboxamide]",≤ 0.05 µM
4,"O=C(NS(=O)(=O)c1ccc(N2CC[C@H](O)C2)cc1)c1cnc2ccc(N3CCC[C@@H]3c3cc(F)ccc3F)cn12 [Example 36, 6-((R)-2-(2,5-difluorophenyl)pyrrolidin-1-yl)-N-((4-((S)-3-hydroxypyrrolidin-1-yl)phenyl)sulfonyl)imidazo[1,2-a]pyridine-3-carboxamide]",0.1 to 0.5 µM

# Second part, the molecule after the results:
row,IC50,SMILES
1,≤ 0.05 µM,"COCCN(C)S(=O)(=O)NC(=O)c1cnc2ccc(N3CCC[C@@H]3c3cc(F)ccc3F)cn12 [Example 39, (R)-6-(2-(2,5-difluorophenyl)pyrrolidin-1-yl)-N-(N-(2-methoxyethyl)-N-methylsulfamoyl)imidazo[1,2-a]pyridine-3-carboxamide]"
2,0.1 to 0.5 µM,"CN(CCF)S(=O)(=O)NC(=O)c1cnc2ccc(N3CCCC3c3cc(F)cc4c3OCCO4)cn12 (single isomer, unassigned) [Example 71, 6-(2-(7-fluoro-2,3-dihydrobenzo[b][1,4]dioxin-5-yl)pyrrolidin-1-yl)-N-(N-(2-fluoroethyl)-N-methylsulfamoyl)imidazo[1,2-a]pyridine-3-carboxamide]"
3,≤ 0.05 µM,"CCOCCN(C)S(=O)(=O)NC(=O)c1cnc2ccc(N3CCC[C@@H]3c3cc(F)ccc3OC3CCOCC3)cn12 [Example 83, (R)—N—(N-(2-ethoxyethyl)-N-methylsulfamoyl)-6-(2-(5-fluoro-2-((tetrahydro-2H-pyran-4-yl)oxy)phenyl)pyrrolidin-1-yl)imidazo[1,2-a]pyridine-3-carboxamide]"
4,0.1 to 0.5 µM,"CN(C)C(=O)c1cnc2ccc(N3CCCC3c3cc(F)ccc3F)cn12 (stereo not drawn) [Example 8, 6-(2-(2,5-difluorophenyl)pyrrolidin-1-yl)-N,N-dimethylimidazo[1,2-a]pyridine-3-carboxamide]"
5,≤ 0.05 µM,"COc1ccc(F)cc1[C@H]1CCCN1c1ccc2ncc(C(=O)NS(=O)(=O)N(C)CCF)n2c1 [Example 56, (R)-6-(2-(5-fluoro-2-methoxyphenyl)pyrrolidin-1-yl)-N-(N-(2-fluoroethyl)-N-methylsulfamoyl)imidazo[1,2-a]pyridine-3-carboxamide]"

# Same assay, conditions: 5 ng TrkA, 500 μM ATP, values given as bins, read-out: TrkA inhibitory activity in-vitro IC50
row,IC50,SMILES
1,1 to 10 µM,"O=C(NS(=O)(=O)c1ccc(N2CC[C@H](O)C2)cc1)c1cnc2ccc(N3CCCCC3c3cc(F)ccc3F)cn12 (stereo partly drawn) [Example 49, 6-(2-(2,5-difluorophenyl)piperidin-1-yl)-N-((4-((S)-3-hydroxypyrrolidin-1-yl)phenyl)sulfonyl)imidazo[1,2-a]pyridine-3-carboxamide]"
2,1 to 10 µM,"O=C(c1cnc2ccc(N3CCCC3c3cc(F)ccc3F)cn12)N1CCOCC1 (stereo not drawn) [Example 6, (6-(2-(2,5-difluorophenyl)pyrrolidin-1-yl)imidazo[1,2-a]pyridin-3-yl)(morpholino)methanone]"
3,1 to 10 µM,"CCN(C)S(=O)(=O)NC(=O)c1cnc2ccc(N3CCCC3c3cc(F)ccc3O[C@@H]3CCOC3)cn12 (single isomer, unassigned) [Example 64]"
